From patent publication US20220162188A1, “ISOPRENOIDS AND METHODS OF MAKING THEREOF” (NORTH CAROLINA STATE UNIVERSITY, priority 2019, published 2022)
Entries after “also recorded” stand apart in the source; their conditions may differ.

What was measured:
[1] = biological target: T1, isopentenyl phosphate kinase (IPK) (Thermoplasma acidophilum, UniProt Q9HLX1); format: biochemical; details: overnight reaction
T1 sequence (Q9HLX1 1-245): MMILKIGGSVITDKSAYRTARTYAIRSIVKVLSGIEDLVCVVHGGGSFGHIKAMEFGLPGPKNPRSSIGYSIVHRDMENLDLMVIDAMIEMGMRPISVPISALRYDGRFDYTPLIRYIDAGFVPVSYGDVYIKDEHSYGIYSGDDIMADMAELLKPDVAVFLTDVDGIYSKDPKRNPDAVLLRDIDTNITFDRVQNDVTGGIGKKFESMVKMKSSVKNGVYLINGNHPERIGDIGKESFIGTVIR
Experimental: Since the substrate scope of IPK has yet to be fully described, here IPK was tested against a wider panel of substrates. The IPK gene from T. acidophilum was codon optimized and subcloned into pET28a. Following expression in E. coli BL21 DE3, the enzyme was purified via metal-chelation affinity chromatography. Next, the substrate specificity of the enzyme was determined in vitro using a panel of synthesized alcohol monophosphates using low resolution mass spectrometry (FIG. 25). The availability of alcohol diphosphate byproducts (FIG. 23) conveniently served as product standards.
Assay for Initial Activity of Monophosphates with IPK. Fractions from the synthesis of the diphosphates on a 400 μmol scale containing the monophosphates were concentrated in vacuo and resuspended to 5 mg/mL in water. Enzymatic reaction mixtures contained 50 mM Tris (pH 8.0), 2.5 mM MgCl2, 0.05 mM DTT, 1 mM ATP, and 4.2 μg of enzyme in a 200 μL reaction with 40 μL of substrate (1 mg/mL final). A reaction mixture without enzyme was setup as a control. Reactions were incubated overnight at 37° C. and checked by low-resolution LC-MS for diphosphate product formation. Standards from the isolated diphosphates were used to confirm retention time and mass. Reactions with a >10% diphosphate generation as compared to the no enzyme control were selected for kinetic experiments. LC-MS experiments were conducted using a Shimadzu LC-MS 2020 single quadrupole instrument with a Phenomenex Kinetex UPLC C18 column (2.1×50 mm, […], 100 Å pores) column. 5 μL was injected onto and separated using a series of linear gradients developed from 0.1% formic acid in H2O (A) to 0.1% formic acid in acetonitrile (B) at 0.2 mL/min using the following protocol: 0-2.2 min, 95-1% A; 2.21-2.6 min, 1% A; 2.61-2.62 min, 1-95% A; 2.63-3.5 min, 95% A. Products of enzymatic reactions were verified by mass and comparison with diphosphate standards previously synthesized.

[2] = tested on: lycopene production via the DXP pathway; experiment: Lycopene colorimetric reporter assay; format: cell-based; details: Fs 0.5 μM; E. coli BL21Tuner(DE3) lycopene reporter strain expressing IPK
PhoN = experiment: Substrate specificity of wild-type PhoN, HR-LCMS; format: biochemical, Shigella flexneri; details: alcohol 100 mM, PhoN 20 μg/mL, ATP 50 mM
Experimental: Broad substrate specificity of wild-type PhoN. Each commercially available alcohol (100 mM) was tested for activity with purified PhoN (20 μg/mL) and ATP (50 mM). The product mixtures were analyzed by high resolution liquid chromatography mass spectrometry (HR-LCMS) to quantify the conversion of alcohol to mono-phosphate. Quantification was achieved by the addition of an internal standard (either geranyl phosphate or cinnamyl monophosphate) at known fixed concentration. The results are illustrated in FIG. 54 and FIG. 55.

CpaD I329G = CpaD I329G (Aspergillus oryzae, UniProt F5HN73, I329G); experiment: Substrate specificity of prenyltransferase mutant CpaD I329G in vitro; format: biochemical; details: pyrophosphate 2 mM, cyclic dipeptide 1 mM, enzyme 1 mg/mL
CpaD I329G, sequence (F5HN73 whole entry I329G): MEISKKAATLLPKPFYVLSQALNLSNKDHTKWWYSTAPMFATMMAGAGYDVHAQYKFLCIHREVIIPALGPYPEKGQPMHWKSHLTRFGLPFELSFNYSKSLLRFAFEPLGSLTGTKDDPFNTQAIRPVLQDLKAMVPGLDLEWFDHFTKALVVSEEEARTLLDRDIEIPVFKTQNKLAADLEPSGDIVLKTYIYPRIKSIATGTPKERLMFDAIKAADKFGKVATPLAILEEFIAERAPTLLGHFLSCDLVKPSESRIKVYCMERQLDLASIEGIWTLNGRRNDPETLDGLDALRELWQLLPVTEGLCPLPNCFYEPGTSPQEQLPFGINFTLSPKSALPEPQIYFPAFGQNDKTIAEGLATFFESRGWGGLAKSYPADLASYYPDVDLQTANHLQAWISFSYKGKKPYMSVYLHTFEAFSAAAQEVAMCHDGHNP
Text: Altered substrate specificity of the prenyltransferase mutant CpaD 1329G in vitro. […] The results are illustrated in FIG. 62 and FIG. 63.

FgaPT2 M328G = FgaPT2 M328G (Aspergillus fumigatus, UniProt Q50EL0, M328G); experiment: Substrate specificity of FgaPT2 mutant M328G in vitro; format: biochemical; details: pyrophosphate 3 mM, enzyme 350 μg/mL, Trp 1 mM
FgaPT2 M328G, sequence (Q50EL0 whole entry M328G): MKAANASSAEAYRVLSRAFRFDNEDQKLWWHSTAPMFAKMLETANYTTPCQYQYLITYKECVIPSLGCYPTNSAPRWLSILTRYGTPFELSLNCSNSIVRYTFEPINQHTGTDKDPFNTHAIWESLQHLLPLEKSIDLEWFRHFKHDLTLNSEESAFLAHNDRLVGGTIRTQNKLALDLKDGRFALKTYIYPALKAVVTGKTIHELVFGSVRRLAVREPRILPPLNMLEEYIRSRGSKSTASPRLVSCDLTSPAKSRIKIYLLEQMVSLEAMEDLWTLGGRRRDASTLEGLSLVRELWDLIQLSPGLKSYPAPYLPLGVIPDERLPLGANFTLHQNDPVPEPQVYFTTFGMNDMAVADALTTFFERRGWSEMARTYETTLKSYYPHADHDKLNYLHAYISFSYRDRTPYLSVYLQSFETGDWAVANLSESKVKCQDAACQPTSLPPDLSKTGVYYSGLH
Experimental: Altered substrate specificity of the prenyltransferase FgaPT2 mutant M328G in vitro. Each chemically synthesized pyrophosphate (3 mM) was tested for activity with purified FgaPT2 M328 (350 μg/mL) and Trp (1 mM). […] The results are illustrated in FIG. 58 and FIG. 59.

FtmPT1 M364G = FtmPT1 M364G (Aspergillus fumigatus, UniProt Q4WAW7, M364G); details: pyrophosphate 2 mM, cyclic dipeptide 1 mM
FtmPT1 M364G, sequence (Q4WAW7 whole entry M364G): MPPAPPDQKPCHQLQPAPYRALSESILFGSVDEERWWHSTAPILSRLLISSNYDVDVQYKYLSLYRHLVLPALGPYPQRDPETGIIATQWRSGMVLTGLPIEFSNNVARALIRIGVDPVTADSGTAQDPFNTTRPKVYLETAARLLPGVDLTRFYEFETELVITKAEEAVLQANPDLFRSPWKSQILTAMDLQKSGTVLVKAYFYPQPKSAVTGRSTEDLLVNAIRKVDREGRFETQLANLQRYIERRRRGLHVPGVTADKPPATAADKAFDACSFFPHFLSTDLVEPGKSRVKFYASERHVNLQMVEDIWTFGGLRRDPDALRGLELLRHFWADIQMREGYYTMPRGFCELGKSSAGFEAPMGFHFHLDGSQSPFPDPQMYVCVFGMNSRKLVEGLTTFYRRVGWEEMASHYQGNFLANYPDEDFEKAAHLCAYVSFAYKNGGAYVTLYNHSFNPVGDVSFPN
Experimental: Each chemically synthesized pyrophosphate (2 mM) and cyclic dipeptide (1 mM) were tested for activity with purified FtmPT1 (100 mg/mL). […] The substrate (cyclic dipeptide) and product peak areas were determined by HPLC at a detection wavelength of 254 nm, and the conversion was calculated.

[3] = biological target: T1, isopentenyl phosphate kinase (IPK); experiment: NADH-coupled kinetic assay of IPK; details: for kcat fold higher than that with IP: relative to natural substrate IP
Experimental: (§1) The data was fitted to the Michaelis-Menten equation using SigmaPlot, and the kinetic parameters (kcat, Km, kcat/Km) extracted.
(§2) NADH-Coupled Kinetic Assays. NADH coupled assays were performed with purified enzymes. Reaction progress was monitored by absorbance at 340 nm at 30° C. in a 96-well plate using a Biotek Synergy 4 plate reader (Winooski, Vt.). 200 μL enzymatic mixtures contained 50 mM Tris (pH 8.0), 25 mM KCl, 2.5 mM MgCl2, 0.05 mM DTT, 1 mM ATP, 320 μM NADH, 400 μM phosphoenolpyruvate, 0.5 U pyruvate kinase, 0.7 U lactate dehydrogenase, and various amounts of substrate. Conditions were verified by doubling enzyme and verifying the initial rate was doubled as well.
(§3) Kinetics of IPK were done with purified enzyme using 0.09 μg of enzyme per well. Serial dilution was used to generate specific concentrations of substrates (3125, 1562, 781, 625, 391, 195, 98, 24, 12, and 3 μM). Each condition was performed in triplicate. Nonlinear regression was fitted using SigmaPlot (Systat Software Inc., San Jose, Calif., USA).

CpaD = CpaD (Aspergillus oryzae, UniProt F5HN73); experiment: Substrate specificity of prenyltransferase CpaD in vitro; format: biochemical; details: pyrophosphate 0.3 mM, cyclic dipeptide 0.25 mM, CpaD 1 mg/mL
CpaD, sequence (F5HN73 whole entry, species assumed): as the sequence (F5HN73 whole entry I329G) above, with G329I counted along it
Experimental: Broad substrate specificity of the prenyltransferase CpaD in vitro. Each chemically synthesized pyrophosphate (0.3 mM) and cyclic dipeptide (0.25 mM) were tested for activity with purified CpaD (1 mg/mL). […] The results are illustrated in FIG. 60 and FIG. 61.

FtmPT1 = FtmPT1 (Aspergillus fumigatus, UniProt Q4WAW7); format: biochemical; details: pyrophosphate 2 mM, cyclic dipeptide 1 mM
FtmPT1, sequence (Q4WAW7 whole entry): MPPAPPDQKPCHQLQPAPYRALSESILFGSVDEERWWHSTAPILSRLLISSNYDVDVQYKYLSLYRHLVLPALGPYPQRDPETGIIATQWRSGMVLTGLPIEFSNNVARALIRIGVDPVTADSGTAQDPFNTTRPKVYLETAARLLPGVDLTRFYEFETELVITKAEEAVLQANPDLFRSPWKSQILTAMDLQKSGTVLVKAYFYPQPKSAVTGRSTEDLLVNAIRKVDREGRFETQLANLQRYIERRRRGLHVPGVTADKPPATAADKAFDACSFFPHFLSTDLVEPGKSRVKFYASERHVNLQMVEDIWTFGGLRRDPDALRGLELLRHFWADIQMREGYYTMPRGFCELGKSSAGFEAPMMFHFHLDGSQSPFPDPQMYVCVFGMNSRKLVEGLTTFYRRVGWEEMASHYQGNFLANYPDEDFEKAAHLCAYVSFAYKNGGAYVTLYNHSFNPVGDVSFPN

FgaPT2 = FgaPT2 (Aspergillus fumigatus, UniProt Q50EL0); experiment: Substrate specificity of wild-type prenyltransferase FgaPT2 in vitro; format: biochemical; details: pyrophosphate 3 mM, FgaPT2 200 μg/mL, Trp 1 mM
FgaPT2, sequence (Q50EL0 whole entry): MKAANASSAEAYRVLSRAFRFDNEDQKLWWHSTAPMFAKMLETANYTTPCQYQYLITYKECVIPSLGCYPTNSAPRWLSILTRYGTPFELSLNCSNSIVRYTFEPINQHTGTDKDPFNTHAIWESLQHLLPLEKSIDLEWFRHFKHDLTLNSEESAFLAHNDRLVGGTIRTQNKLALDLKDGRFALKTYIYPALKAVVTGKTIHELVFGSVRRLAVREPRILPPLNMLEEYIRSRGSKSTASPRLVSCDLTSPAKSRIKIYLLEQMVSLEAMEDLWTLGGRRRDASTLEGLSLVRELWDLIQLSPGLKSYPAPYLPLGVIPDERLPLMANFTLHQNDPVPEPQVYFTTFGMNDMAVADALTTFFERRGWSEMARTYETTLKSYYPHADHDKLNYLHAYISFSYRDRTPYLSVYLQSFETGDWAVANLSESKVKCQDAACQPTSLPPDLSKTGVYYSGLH
Experimental: Broad substrate specificity of the wild-type prenyltransferase FgaPT2 in vitro. Each chemically synthesized pyrophosphate (3 mM) was tested for activity with purified FgaPT2 (200 μg/mL) and Trp (1 mM). The product mixtures were analyzed by HR-LCMS to identify the mass ions consistent with the expected alkylated product. The substrate (Trp) and product peak areas were determined by high performance liquid chromatography (HPLC) at a detection wavelength of 269 nm, and the conversion was calculated. The results are illustrated in FIG. 56 and FIG. 57.

[4] = biological target: IspA, a farnesyl diphosphate synthase (FPPase) (Escherichia coli, UniProt P22939); details: wild-type IspA, DMAPP as starter unit
IspA, a farnesyl diphosphate synthase (FPPase), sequence (P22939 whole entry): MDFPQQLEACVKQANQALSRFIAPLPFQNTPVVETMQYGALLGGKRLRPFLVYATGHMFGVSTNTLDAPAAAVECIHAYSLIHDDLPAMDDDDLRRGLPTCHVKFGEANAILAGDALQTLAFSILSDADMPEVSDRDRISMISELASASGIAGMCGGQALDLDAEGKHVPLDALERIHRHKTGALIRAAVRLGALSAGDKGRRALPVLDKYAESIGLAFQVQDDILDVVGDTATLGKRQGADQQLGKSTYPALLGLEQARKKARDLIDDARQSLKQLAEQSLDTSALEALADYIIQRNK

[5] = substrate: C=C(C)CCOP(=O)(O)O; experiment: purified protein, by the assay type; details: other: IPK with monophosphorylated substrate, ± SD of the mean, 1 mM ATP, 30° C., pH 8.0
Experimental: as §1, §2, §3

[6] = substrate: CC(C)=CCOP(=O)(O)O; experiment: purified protein, by the assay type; details: other: IPK with monophosphorylated substrate, ± SD of the mean, 1 mM ATP, 30° C., pH 8.0
Experimental: as §1, §2, §3

CC(C)=CCC/C(C)=C\CC/C(C)=C\COP(=O)(O)O [FP, farnesyl monophosphate]
phosphorylation by IPK to the corresponding pyrophosphate, as judged by MS [1]: did not result in detection of the corresponding pyrophosphate

O=CN(O)CCCP(=O)(O)O [Fs, fosmidomycin]
lycopene production [2]: almost completely inhibited lycopene production

CC(C)=CCC/C(C)=C/COP(=O)(O)O [GP, geranyl monophosphate]
phosphorylation by IPK to the corresponding pyrophosphate, as judged by MS [1]: did not result in detection of the corresponding pyrophosphate

CC(C)=CCC/C(C)=C\COP(=O)(O)O [NP, neryl monophosphate]
phosphorylation by IPK to the corresponding pyrophosphate, as judged by MS [1]: did not result in detection of the corresponding pyrophosphate

C=CCCOP(=O)(O)O [Substrate 1]
PhoN-catalyzed phosphorylation of alcohol: expected product detected (PhoN): mass ions were detected by HR-LCMS consistent with the expected product | CpaD I329G-catalyzed alkylation of cyclic dipeptide: expected product detected (CpaD I329G): products detected by HPLC and confirmed by LR-LCMS | FgaPT2 M328G-catalyzed alkylation of Trp: expected product detected (FgaPT2 M328G): products detected by HPLC and confirmed by LR-LCMS | FtmPT1 M364G-catalyzed alkylation of cyclic dipeptide: expected product detected (FtmPT1 M364G): products detected by HPLC and confirmed by LR-LCMS | kcat fold higher than that with IP [3]: 4.25 fold

C=CCC(C)OP(=O)(O)O (stereo not shown) [Substrate 2]
CpaD-catalyzed alkylation of cyclic dipeptide: expected product detected (CpaD): products detected by HPLC and confirmed by LR-LCMS | PhoN-catalyzed phosphorylation of alcohol: expected product detected (PhoN): mass ions were detected by HR-LCMS consistent with the expected product | use as IPK substrate [3]: detectable but kinetically irrelevant | FtmPT1-catalyzed alkylation of cyclic dipeptide: expected product detected (FtmPT1): products detected by HPLC and confirmed by LR-LCMS

C=C(Br)CCOP(=O)(O)O [Substrate 3]
PhoN-catalyzed phosphorylation of alcohol: expected product detected (PhoN): mass ions were detected by HR-LCMS consistent with the expected product | CpaD I329G-catalyzed alkylation of cyclic dipeptide: expected product detected (CpaD I329G): products detected by HPLC and confirmed by LR-LCMS | FgaPT2 M328G-catalyzed alkylation of Trp: expected product detected (FgaPT2 M328G): products detected by HPLC and confirmed by LR-LCMS | FtmPT1 M364G-catalyzed alkylation of cyclic dipeptide: expected product detected (FtmPT1 M364G): products detected by HPLC and confirmed by LR-LCMS | kcat fold higher than that with IP [3]: 5.1 fold

C#CCCCOP(=O)(O)O [Substrate 4]
PhoN-catalyzed phosphorylation of alcohol: expected product detected (PhoN): mass ions were detected by HR-LCMS consistent with the expected product | CpaD I329G-catalyzed alkylation of cyclic dipeptide: expected product detected (CpaD I329G): products detected by HPLC and confirmed by LR-LCMS | FgaPT2 M328G-catalyzed alkylation of Trp: expected product detected (FgaPT2 M328G): products detected by HPLC and confirmed by LR-LCMS | FtmPT1 M364G-catalyzed alkylation of cyclic dipeptide: expected product detected (FtmPT1 M364G): products detected by HPLC and confirmed by LR-LCMS

C=C(C)COP(=O)(O)O [Substrate 5]
PhoN-catalyzed phosphorylation of alcohol: expected product detected (PhoN): mass ions were detected by HR-LCMS consistent with the expected product

C=CCCCOP(=O)(O)O [Substrate 6]
fold drop in kcat/Km ([3]; between 1 and 6): 3 fold | FgaPT2-catalyzed alkylation of Trp: expected product detected (FgaPT2): mass ions were detected by HR-LCMS consistent with the expected product

CCC/C=C\COP(=O)(O)O [Substrate 7]
FgaPT2-catalyzed alkylation of Trp: expected product detected (FgaPT2): mass ions were detected by HR-LCMS consistent with the expected product

CCC/C=C/COP(=O)(O)O [Substrate 8]
fold decrease in kcat/Km ([3]; π-bond geometry of 7 switched from Z to E in 8): 17 fold | FgaPT2-catalyzed alkylation of Trp: expected product detected (FgaPT2): mass ions were detected by HR-LCMS consistent with the expected product

C#CCCOP(=O)(O)O [Substrate 9]
PhoN-catalyzed phosphorylation of alcohol: expected product detected (PhoN): mass ions were detected by HR-LCMS consistent with the expected product

C=CCC(C)OP(=O)(O)OP(=O)(O)O (stereo not shown) [Substrate 19]
CpaD-catalyzed alkylation of cyclic dipeptide: expected product detected (CpaD): products detected by HPLC and confirmed by LR-LCMS | PhoN-catalyzed phosphorylation of alcohol: expected product detected (PhoN): mass ions were detected by HR-LCMS consistent with the expected product | FgaPT2-catalyzed alkylation of Trp: expected product detected (FgaPT2): mass ions were detected by HR-LCMS consistent with the expected product | FtmPT1-catalyzed alkylation of cyclic dipeptide: expected product detected (FtmPT1): products detected by HPLC and confirmed by LR-LCMS

C=CCCCOP(=O)(O)O [Substrate 27]
use as extender unit in place of IPP (GPP analogue by LC-MS), words [4]: not utilized by IspA; also recorded: did not facilitate carbon-carbon bond formation; also recorded: did not serve as an extender unit | kcat ([3]; IPK with monophosphorylated substrate, ± SD of the mean): 93.1 ± 2.67 s⁻¹ | Km ([3]; IPK with monophosphorylated substrate, ± SD of the mean, 1 mM ATP, 30° C.): 848 ± 57.9 µM

O=P(O)(O)OP(=O)(O)OCc1cccnc1 [Substrate 32]
use as extender unit in place of IPP (GPP analogue by LC-MS), words [4]: did not serve as an extender unit

B1: isopentenyl phosphate kinase (IPK) (Thermoplasma acidophilum DSM 1728) (protein)
chain: MMILKIGGSVITDKSAYRTARTYAIRSIVKVLSGIEDLVCVVHGGGSFGHIKAMEFGLPGPKNPRSSIGYSIVHRDMENLDLMVIDAMIEMGMRPISVPISALRYDGRFDYTPLIRYIDAGFVPVSYGDVYIKDEHSYGIYSGDDIMADMAELLKPDVAVFLTDVDGIYSKDPKRNPDAVLLRDIDTNITFDRVQNDVTGGIGKKFESMVKMKSSVKNGVYLINGNHPERIGDIGKESFIGTVIR
Km [5]: 27.9 ± 4.37 µM | kcat [5]: 43.9 ± 1.1 s⁻¹ | kcat/Km [5]: 1.5e+06 M⁻¹ s⁻¹ | Km [6]: 134 ± 38.2 µM | kcat [6]: 32.7 ± 2.05 s⁻¹ | kcat/Km [6]: 230000 M⁻¹ s⁻¹
